Laboratory results: ChEMBL document CHEMBL1129015, “The design, binding affinity prediction and synthesis of macrocyclic angiotensin II AT1 and AT2 receptor antagonists” (Bioorg Med Chem Lett, 1996)

Tests used:
[1] = target: T1, Type-1 angiotensin II receptor (Oryctolagus cuniculus, UniProt P34976); assay: Inhibition of [125I]-Sar1-Ile8-Ang II binding to Angiotensin II receptor type 1 from rabbit aorta
T1 sequence (P34976 whole entry): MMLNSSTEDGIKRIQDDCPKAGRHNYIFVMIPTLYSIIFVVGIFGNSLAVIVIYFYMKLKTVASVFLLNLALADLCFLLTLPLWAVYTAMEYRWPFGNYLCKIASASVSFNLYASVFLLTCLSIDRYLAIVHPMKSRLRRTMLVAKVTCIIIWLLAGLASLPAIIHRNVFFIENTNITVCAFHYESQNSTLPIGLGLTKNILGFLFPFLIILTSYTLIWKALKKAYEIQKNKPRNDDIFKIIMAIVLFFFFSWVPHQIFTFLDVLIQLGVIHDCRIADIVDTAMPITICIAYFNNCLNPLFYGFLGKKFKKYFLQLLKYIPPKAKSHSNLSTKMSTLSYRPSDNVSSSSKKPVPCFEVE

[2] = target: T2, Type-2 angiotensin II receptor (Rattus norvegicus, UniProt P35351); assay: Inhibition of [125I]-Sar1-Ile8-Ang II binding to rat midbrain Angiotensin II receptor type 2
T2 sequence (P35351 whole entry): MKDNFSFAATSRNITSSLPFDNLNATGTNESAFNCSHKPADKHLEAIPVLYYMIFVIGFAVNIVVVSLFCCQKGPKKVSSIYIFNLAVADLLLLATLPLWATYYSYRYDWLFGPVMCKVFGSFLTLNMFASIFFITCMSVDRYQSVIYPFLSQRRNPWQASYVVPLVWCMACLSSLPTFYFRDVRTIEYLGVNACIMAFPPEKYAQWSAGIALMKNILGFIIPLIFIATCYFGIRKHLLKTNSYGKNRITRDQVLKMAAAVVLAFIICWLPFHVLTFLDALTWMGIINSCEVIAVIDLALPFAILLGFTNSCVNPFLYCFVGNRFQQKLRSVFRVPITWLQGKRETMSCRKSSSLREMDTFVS

SMILES | IC50 [1] [nM] | IC50 [2] [nM]
CCCc1nc2ccc3cc2c(=O)n1Cc1ccc(cc1)-c1ccccc1S(=O)(=O)NC(=O)CCCCCN3C(=O)OCc1ccccc1 | 23 | 4000
CCCCCN(C(=O)c1ccccc1)c1ccc2nc(CCC)n(Cc3ccc(-c4ccccc4S(=O)(=O)NC(=O)c4ccccc4)cc3)c(=O)c2c1 | 11 | 350
CCCc1nc2ccc3cc2c(=O)n1Cc1ccc(cc1)-c1ccccc1S(=O)(=O)NC(=O)CCCCCCCN3 | 0.3 | 200
CCCc1nc2ccc3cc2c(=O)n1Cc1ccc(cc1)-c1ccccc1S(=O)(=O)NC(=O)CCCCCCCN3C(=O)OCc1ccccc1 | 1.5 | 75

More lines, in order of falling IC50 [1], values ahead:

IC50 [1] [nM] | IC50 [2] [nM] | SMILES
30 | 20 | CCCc1ccc2c(c1)-c1ccc(cc1)Cn1c(CCC)nc3ccc(cc3c1=O)N(C(=O)OCc1ccccc1)CCCCCCCC(=O)NS2(=O)=O
8.8 | 630 | CCCc1nc2ccc(NC(=O)NC(C)C)cc2c(=O)n1Cc1ccc(-c2ccccc2S(=O)(=O)NC(C)=O)cc1
3.9 | 24 | CCCc1ccc2c(c1)-c1ccc(cc1)Cn1c(CCC)nc3ccc(cc3c1=O)NCCCCCCCC(=O)NS2(=O)=O
1.3 | 49 | CCCc1nc2ccc3cc2c(=O)n1Cc1ccc(cc1)-c1ccccc1S(=O)(=O)NC(=O)CCCCCCCN3C(=O)c1ccccc1
0.9 | 18 | CCCc1nc2ccc(NC(=O)NC(C)C)cc2c(=O)n1Cc1ccc(-c2ccccc2S(=O)(=O)NC(=O)c2ccccc2)cc1
0.4 | 3000 | CCCc1nc2ccc(NC(=O)c3ccccc3)cc2c(=O)n1Cc1ccc(-c2ccccc2-c2nnn[nH]2)cc1
